Data from patent US12371454B2, “Cyclic peptide compound having Kras inhibitory action” (priority 2019, dated 2025).
Starred links: 1 amine or outer side, 2 acyl side, 3 side chain; linkers in the order of their positions; H or OH if unused. Positions of bridges follow the written chain, without caps; N, C: chain ends. Non-standard residues stand in square brackets, D forms with d. Residues, ends and D or L forms follow the SMILES beside them. *: point of attachment. hPhe(3-Cl-4-CF3) = N[C@@H](CCc1ccc(C(F)(F)F)c(Cl)c1)C(=O)O; NMePhe(4-Me) = CN[C@@H](Cc1ccc(C)cc1)C(=O)O; NMedβ3hAla = C[C@H](CC(=O)[*:2])N(C)[*:1]; NMeAla(cPent) = CN[C@@H](CC1CCCC1)C(=O)O; NMeGly(cPent) = CN[C@H](C(=O)O)C1CCCC1; NMeCha = CN[C@@H](CC1CCCCC1)C(=O)O; NMeChg = CN[C@H](C(=O)O)C1CCCCC1; NMeI = CC[C@H](C)[C@H](NC)C(=O)O; NMeD = CN[C@@H](CC(=O)O)C(=O)O; NMeL = CN[C@@H](CC(C)C)C(=O)O; NMeV = CN[C@H](C(=O)O)C(C)C; NMeS = CN[C@@H](CO)C(=O)O; NMeA = CN[C@@H](C)C(=O)O; Piperidide = C1CCN(*)CC1; Pyrrolidide = C1CCN(*)C1; Ac5c = NC1(C(=O)O)CCCC1; Aze = O=C(O)[C@@H]1CCN1; Aib = CC(C)(N)C(=O)O; Sar = CNCC(=O)O; Propyl = CCC*

Key:
[1] = biological target: T1, Kras and SOS1 (biotin-tagged human Kras loaded with GDP, His-tagged human SOS1) (Homo sapiens, UniProt P01116, G12D); test: Protein-protein interaction inhibition between Kras and SOS1 (KrasGl2D-SOS PPI) using AlphaScreen; format: binding; conditions: AlphaScreen; biotin-tagged human Kras loaded with GDP, His-tagged human SOS1; read-out: KRAS G12D-SOS PPI IC50
T1 construct: made in house; host or cells: E. coli (stated for Kras only)
T1 sequence (P01116 1-188 isoform P01116-2 G12D): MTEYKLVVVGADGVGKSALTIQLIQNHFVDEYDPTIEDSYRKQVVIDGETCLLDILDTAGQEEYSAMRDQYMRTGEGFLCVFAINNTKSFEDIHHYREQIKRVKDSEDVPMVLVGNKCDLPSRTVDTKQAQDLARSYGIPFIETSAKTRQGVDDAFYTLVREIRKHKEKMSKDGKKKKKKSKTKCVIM
How it was run: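 Read-out is acceptor-bead light at 520-620 nm, arising when 680 nm-irradiated nickel donor beads pass singlet oxygen to streptavidin acceptors. The bead pair links His-tagged SOS1 with biotin-tagged, GDP-bound Kras from E. coli.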

[2] = system: Human pancreatic cancer cell line AsPC-1; test: Measurement of AsPC-1 cell growth inhibition (AsPC-1 CGI); format: cell-based; conditions: 96 h
How it was run: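 AsPC-1 cells in 15% FBS RPMI-1640 were exposed to test compound for 96 hours at 37° C, with CellTiter-Glo as endpoint.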

Row | Structure (SMILES) | IC50 [1] | IC50 [2]
1 | CC(C)C[C@@H]1NC(=O)[C@H](CC(C)C)N(C)C(=O)C[C@@H](C(=O)N2CCCCC2)N(C)C(=O)[C@H](C2CCCCC2)N(C)C(=O)C2(CCCC2)NC(=O)[C@@H]2CCCN2C(=O)[C@H](CCc2ccc(C(F)(F)F)c(Cl)c2)NC(=O)CN(C)C(=O)[C@H](CC2CCCCC2)N(C)C(=O)CN(C)C(=O)CN(C)C1=O [Compound 1650] ([NMeL]L[Sar][Sar][NMeCha][Sar][hPhe(3-Cl-4-CF3)]P[Ac5c][NMeChg][NMeD]-Piperidide; lactam N-11) | 2.6 nM | 100 to 500 nM
2 | CC[C@H](C)[C@@H]1NC(=O)[C@H](CC(C)C)N(C)C(=O)C[C@@H](C(=O)N2CCCCC2)N(C)C(=O)[C@H](C2CCCCC2)N(C)C(=O)C2(CCCC2)NC(=O)[C@@H]2CCCN2C(=O)[C@H](CCc2ccc(C(F)(F)F)c(Cl)c2)NC(=O)CN(C)C(=O)[C@H](CC(C)C)N(C)C(=O)CN(C)C(=O)CN(C)C1=O [Compound 1652] ([NMeL]I[Sar][Sar][NMeL][Sar][hPhe(3-Cl-4-CF3)]P[Ac5c][NMeChg][NMeD]-Piperidide; lactam N-11) | 3.1 nM | 100 to 500 nM
3 | CC[C@H](C)[C@@H]1NC(=O)[C@H](CC(C)C)N(C)C(=O)C[C@@H](C(=O)N2CCCC2)N(C)C(=O)[C@H](C(C)C)N(C)C(=O)C2(CCCC2)NC(=O)[C@@H]2CCCN2C(=O)[C@H](CCc2ccc(C(F)(F)F)c(Cl)c2)NC(=O)CN(C)C(=O)[C@H](CC2CCCCC2)N(C)C(=O)[C@@H]2CCN2C(=O)[C@H](C)N(C)C1=O [Compound 1656] ([NMeL]I[NMeA][Aze][NMeCha][Sar][hPhe(3-Cl-4-CF3)]P[Ac5c][NMeV][NMeD]-Pyrrolidide; lactam N-11) | 1.4 nM | 100 to 500 nM
4 | CC[C@H](C)[C@@H]1NC(=O)[C@H](CC(C)C)N(C)C(=O)C[C@@H](C(=O)N2CCCC2)N(C)C(=O)[C@H](C2CCCCC2)N(C)C(=O)C2(CCCC2)NC(=O)[C@@H]2CCCN2C(=O)[C@H](CCc2ccc(C(F)(F)F)c(Cl)c2)NC(=O)CN(C)C(=O)[C@H](Cc2ccc(C)cc2)N(C)C(=O)CN(C)C(=O)CN(C)C1=O [Compound 1658] ([NMeL]I[Sar][Sar][NMePhe(4-Me)][Sar][hPhe(3-Cl-4-CF3)]P[Ac5c][NMeChg][NMeD]-Pyrrolidide; lactam N-11) | 0.55 nM | 20 to 50 nM
5 | CC[C@H](C)[C@@H]1NC(=O)[C@H](CC2CCCC2)N(C)C(=O)C[C@@H](C(=O)N2CCCCC2)N(C)C(=O)[C@H](C2CCCCC2)N(C)C(=O)C2(CCCC2)NC(=O)[C@@H]2CCCN2C(=O)[C@H](CCc2ccc(C(F)(F)F)c(Cl)c2)NC(=O)CN(C)C(=O)[C@H](CC2CCCCC2)N(C)C(=O)CN(C)C(=O)CN(C)C1=O [Compound 1663] ([NMeAla(cPent)]I[Sar][Sar][NMeCha][Sar][hPhe(3-Cl-4-CF3)]P[Ac5c][NMeChg][NMeD]-Piperidide; lactam N-11) | 1.6 nM | 100 to 500 nM
6 | CCCOC[C@H]1C(=O)N[C@@H]([C@@H](C)CC)C(=O)N(C)CC(=O)N(C)CC(=O)N(C)[C@@H](CC2CCCCC2)C(=O)N(C)CC(=O)N[C@@H](CCc2ccc(C(F)(F)F)c(Cl)c2)C(=O)N2CCC[C@H]2C(=O)NC2(CCCC2)C(=O)N(C)[C@@H](C2CCCCC2)C(=O)N(C)[C@H](C(=O)N2CCCCC2)CC(=O)N1C [Compound 1668] ([NMeS](Propyl)I[Sar][Sar][NMeCha][Sar][hPhe(3-Cl-4-CF3)]P[Ac5c][NMeChg][NMeD]-Piperidide; lactam N-11) | 0.85 nM | 50 to 100 nM
7 | CC[C@H](C)[C@@H]1NC(=O)[C@H](CC(C)C)N(C)C(=O)C[C@@H](C(=O)N2CCCCC2)N(C)C(=O)[C@H](C2CCCCC2)N(C)C(=O)C2(CCCC2)NC(=O)[C@@H]2CCCN2C(=O)[C@H](CCc2ccc(C(F)(F)F)c(Cl)c2)NC(=O)CN(C)C(=O)[C@H](C2CCCC2)N(C)C(=O)CN(C)C(=O)CN(C)C1=O [Compound 1669] ([NMeL]I[Sar][Sar][NMeGly(cPent)][Sar][hPhe(3-Cl-4-CF3)]P[Ac5c][NMeChg][NMeD]-Piperidide; lactam N-11) | 1.8 nM | 100 to 500 nM
8 | CC[C@H](C)[C@@H]1NC(=O)[C@H]([C@@H](C)CC)N(C)C(=O)C[C@@H](C(=O)N2CCCCC2)N(C)C(=O)[C@H](C2CCCCC2)N(C)C(=O)C2(CCCC2)NC(=O)[C@@H]2CCCN2C(=O)[C@H](CCc2ccc(C(F)(F)F)c(Cl)c2)NC(=O)CN(C)C(=O)[C@H](CC2CCCCC2)N(C)C(=O)CN(C)C(=O)CN(C)C1=O [Compound 1671] ([NMeI]I[Sar][Sar][NMeCha][Sar][hPhe(3-Cl-4-CF3)]P[Ac5c][NMeChg][NMeD]-Piperidide; lactam N-11) | 1.1 nM | 50 to 100 nM
9 | CC[C@H](C)[C@@H]1NC(=O)[C@H](CC(C)C)N(C)C(=O)C[C@@H](C)N(C)C(=O)[C@H](C2CCCCC2)N(C)C(=O)C2(CCCC2)NC(=O)[C@@H]2CCCN2C(=O)[C@H](CCc2ccc(C(F)(F)F)c(Cl)c2)NC(=O)CN(C)C(=O)[C@H](Cc2ccc(C)cc2)N(C)C(=O)[C@@H]2CCN2C(=O)[C@H](C)N(C)C1=O [Compound 1673] (cyclo([Ac5c][NMeChg][NMedβ3hAla][NMeL]I[NMeA][Aze][NMePhe(4-Me)][Sar][hPhe(3-Cl-4-CF3)]P)) | 5.4 nM | 100 to 500 nM
10 | CC[C@H](C)[C@@H]1NC(=O)[C@H](CC(C)C)N(C)C(=O)C[C@@H](C(=O)N2CCCCC2)N(C)C(=O)[C@H](C2CCCCC2)N(C)C(=O)C(C)(C)NC(=O)[C@@H]2CCCN2C(=O)[C@H](CCc2ccc(C(F)(F)F)c(Cl)c2)NC(=O)CN(C)C(=O)[C@H](CC2CCCCC2)N(C)C(=O)CN(C)C(=O)CN(C)C1=O [Compound 1680] ([NMeL]I[Sar][Sar][NMeCha][Sar][hPhe(3-Cl-4-CF3)]P[Aib][NMeChg][NMeD]-Piperidide; lactam N-11) | 0.61 nM | 50 to 100 nM
11 | CC[C@H](C)[C@@H]1NC(=O)[C@H](CC(C)C)N(C)C(=O)C[C@@H](C)N(C)C(=O)[C@H](C2CCCCC2)N(C)C(=O)C2(CCCC2)NC(=O)[C@@H]2CCCN2C(=O)[C@H](CCc2ccc(C(F)(F)F)c(Cl)c2)NC(=O)CN(C)C(=O)[C@H](Cc2ccc(C)cc2)N(C)C(=O)CN(C)C(=O)CN(C)C1=O [Compound 1682] (cyclo([Ac5c][NMeChg][NMedβ3hAla][NMeL]I[Sar][Sar][NMePhe(4-Me)][Sar][hPhe(3-Cl-4-CF3)]P)) | 2.4 nM | 100 to 500 nM
12 | CC[C@H](C)[C@@H]1NC(=O)[C@H](CC(C)C)N(C)C(=O)C[C@@H](C(=O)N2CCCCC2)N(C)C(=O)[C@H](C(C)C)N(C)C(=O)C2(CCCC2)NC(=O)[C@@H]2CCCN2C(=O)[C@H](CCc2ccc(C(F)(F)F)c(Cl)c2)NC(=O)CN(C)C(=O)[C@H]([C@@H](C)CC)N(C)C(=O)[C@@H]2CCN2C(=O)[C@H](C)N(C)C1=O [Compound 1684] ([NMeL]I[NMeA][Aze][NMeI][Sar][hPhe(3-Cl-4-CF3)]P[Ac5c][NMeV][NMeD]-Piperidide; lactam N-11) | 4.3 nM | 100 to 500 nM
13 | CC[C@H](C)[C@@H]1NC(=O)[C@H](CC(C)C)N(C)C(=O)C[C@@H](C(=O)N2CCCCC2)N(C)C(=O)[C@H](C2CCCCC2)N(C)C(=O)C2(CCCC2)NC(=O)[C@@H]2CCCN2C(=O)[C@H](CCc2ccc(C(F)(F)F)c(Cl)c2)NC(=O)CN(C)C(=O)[C@H]([C@@H](C)CC)N(C)C(=O)CN(C)C(=O)CN(C)C1=O [Compound 1686] ([NMeL]I[Sar][Sar][NMeI][Sar][hPhe(3-Cl-4-CF3)]P[Ac5c][NMeChg][NMeD]-Piperidide; lactam N-11) | 1.5 nM | 100 to 500 nM
14 | CC[C@H](C)[C@@H]1NC(=O)[C@H](CC(C)C)N(C)C(=O)C[C@@H](C(=O)N2CCCCC2)N(C)C(=O)[C@H](C2CCCCC2)N(C)C(=O)C2(CCCC2)NC(=O)[C@@H]2CCCN2C(=O)[C@H](CCc2ccc(C(F)(F)F)c(Cl)c2)NC(=O)CN(C)C(=O)[C@H](CC2CCCC2)N(C)C(=O)CN(C)C(=O)CN(C)C1=O [Compound 1689] ([NMeL]I[Sar][Sar][NMeAla(cPent)][Sar][hPhe(3-Cl-4-CF3)]P[Ac5c][NMeChg][NMeD]-Piperidide; lactam N-11) | 1.1 nM | 50 to 100 nM
15 | CC[C@H](C)[C@@H]1NC(=O)[C@H](CC(C)C)N(C)C(=O)C[C@@H](C)N(C)C(=O)[C@H](C2CCCC2)N(C)C(=O)C2(CCCC2)NC(=O)[C@@H]2CCCN2C(=O)[C@H](CCc2ccc(C(F)(F)F)c(Cl)c2)NC(=O)CN(C)C(=O)[C@H](Cc2ccc(C)cc2)N(C)C(=O)CN(C)C(=O)CN(C)C1=O [Compound 1694] (cyclo([Ac5c][NMeGly(cPent)][NMedβ3hAla][NMeL]I[Sar][Sar][NMePhe(4-Me)][Sar][hPhe(3-Cl-4-CF3)]P)) | 0.55 nM | 20 to 50 nM
16 | CC[C@H](C)[C@@H]1NC(=O)[C@H](C)N(C)C(=O)C[C@@H](C(=O)N2CCCCC2)N(C)C(=O)[C@H](C2CCCCC2)N(C)C(=O)C2(CCCC2)NC(=O)[C@@H]2CCCN2C(=O)[C@H](CCc2ccc(C(F)(F)F)c(Cl)c2)NC(=O)CN(C)C(=O)[C@H](CC2CCCCC2)N(C)C(=O)CN(C)C(=O)CN(C)C1=O [Compound 1696] ([NMeA]I[Sar][Sar][NMeCha][Sar][hPhe(3-Cl-4-CF3)]P[Ac5c][NMeChg][NMeD]-Piperidide; lactam N-11) | 0.57 nM | 50 to 100 nM
17 | CC[C@H](C)[C@@H]1NC(=O)[C@H](CC(C)C)N(C)C(=O)C[C@@H](C(=O)N2CCCC2)N(C)C(=O)[C@H](C(C)C)N(C)C(=O)C2(CCCC2)NC(=O)[C@@H]2CCCN2C(=O)[C@H](CCc2ccc(C(F)(F)F)c(Cl)c2)NC(=O)CN(C)C(=O)[C@H](CC2CCCC2)N(C)C(=O)CN(C)C(=O)CN(C)C1=O [Compound 1699] ([NMeL]I[Sar][Sar][NMeAla(cPent)][Sar][hPhe(3-Cl-4-CF3)]P[Ac5c][NMeV][NMeD]-Pyrrolidide; lactam N-11) | 1.1 nM | 100 to 500 nM
